{"source": "patent US10487045B2", "about": "“Adamantane derivative and use thereof” (TOHOKU UNIVERSITY, priority 2016, dated 2019)", "assay_type_in_all_cases": "in vivo", "key": {"APP23 mice [1]": {"test_system": "APP23 mice", "assay": "Immunoblotting of hippocampus for phosphorylation of CaMKII, CaMKIV and ERK", "conditions": "APP23 mice chronically treated, conditions as Test Example 4", "protocol": "The hippocampus of APP23 mouse was excised out. To hippocampal slices, an SDS sample buffer was added to prepare a suspension, which was subjected to immunoblotting using antibodies against CaMKII, CaMKIV and ERK (CaMKII: Fukunaga et al., J. Biol. Chem. 1992, 267, 22527-22533, CaMKIV: Kasahara et al., J. Biol. Chem. 2001, 276, 24044-24050, ERK: manufactured by Sigma-Aldrich). In this manner, phosphorylation of the individual proteins was analyzed. CaMKII, CaMKIV and ERK are molecules all considered to play an important role in memory formation. As a result, it was observed that phosphorylation of CaMKII decreases in ordinary APP23 mice; whereas, in APP23 mice chronically treated with TP-014 (the treatment conditions are the same as in the case of Test Example 4), phosphorylation of CaMKII is accelerated.\nGluA1 (Ser-831), Synapsin I (Ser-603) and CREB (Ser-133), which are molecules known to be activated if CaMKII is activated. These molecules were analyzed by immunoblotting of hippocampal slice sections suspended in an SDS sample buffer. Antibodies against the individual molecules were obtained from Millipore. It is shown that activation of GluA1 (Ser-831) and CREB (Ser-133) is induced by activation of CaMKII. FIG. 5a and FIG. 5c show bands (image) actually obtained by electrophoresis of immunoblots."}, "[2]": {"test_system": "Kir6.1 defective mice administered with corticosterone", "assay": "Anxiety-related behavioral tests in Kir6.1 defective mice administered with corticosterone", "conditions": "Kir6.1 defective mice + corticosterone; TP-014 1 mg/kg oral once a day for 2 weeks", "protocol": "Using WT mice (C57BL/6J, Japan SLC, two months old) administered with corticosterone (dose of 5 mg/kg was administered once a day for 2 weeks); and Kir6.1 defective mice administered with corticosterone, as disease model mice showing anxiety-like symptoms, five behavioral tests regarding anxiety-related behavior were conducted. Note that, the Kir6.1 defective mice were obtained from Professor Susumu Seino, School of Medicine of Kobe University (Miki T et al., Nature Medicine 2002, 8, 466-472).\nTo the WT mice and Kir6.1 defective mice administered with corticosterone, TP-014 (1 mg/kg) was administered via the oral route once a day for 2 weeks (chronic treatment). As a result, it was confirmed that a significant anxiety symptom acceleration improving effect was obtained. […]\nThe time until a mouse placed in a black box (dark place) feels anxiety to light and comes out of the box to a bright place) was measured. […]\nIn the cage for housing a mouse is filled with wood chip bedding and 20 marbles are placed such that a mouse can see them. […] The number of marbles buried and hidden in the wood chip bedding is counted. […]\nUsing the same test apparatus as in the light/dark test method, a mouse is placed in a dark place, and then, sound (treble) is produced for 30 seconds and thereafter electrical stimulation is given for 3 seconds. […] The immobility time of the mouse is measured. […]"}, "APP23 mice [3]": {"test_system": "APP23 mice", "assay": "Y-maze method in Alzheimer's disease model mice", "conditions": "APP23 mice 12 months old, 1 mg/kg orally once a day for two months", "protocol": "To Alzheimer's disease model mice (APP23 mice, Sturchler-Pierrat et al., Proc. Natl. Acad. Sci. U.S.A. 1997, 94, 13287-13292)(12 months old), TP-014 (1 mg/kg) was orally administered once a day for two months (chronic treatment). […] FIGS. 4a-d show the results of behavior analysis. FIG. 4a and FIG. 4b show attentional function analyzed on WT mice (C57BL/6J, Japan SLC) and APP23 mice (n=5 per group) by an ordinary Y-maze method. […] The Y-maze method is a method of allowing mice to freely walk on three arms for 8 minutes. The arms will be provisionally designated as A, B, C, respectively. A mouse positioned on A will move to B or C (arm). […] The arms to which a mouse moved are recorded in chronological order and the number of times a mouse moves to each of the arms within a predetermined time is counted and determined as “total arm entries”. Of them, the number of the right-answer cases (the case where a mouse consecutively chooses three different arms) was counted and determined as the number of alternating behaviors (“No. of alternation”). The ratio of “No. of alternation” to the number obtained by subtracting 2 from the “total arm entries” is expressed as alternation (%) and used as the normal alternate behavior index (spatial working memory correct answer ratio). […]"}, "APP23 mice [4]": {"test_system": "APP23 mice", "assay": "New object recognition test in Alzheimer's disease model mice", "conditions": "APP23 mice 12 month-old, administered for two months", "protocol": "The new object recognition test method is carried out as follows. Two identical shape building blocks are placed in a mouse cage and mice are allowed to play for 10 minutes (this is referred to as a training trial). One hour later, one of the building blocks was replaced with a different-shaped building block. Since normal mice show interest on a new object, they play a longer time with the different-shaped building block. The Alzheimer's disease (model) mice, since the mice fail to recognize the new object (building block), are seemed to have memory disturbance. Mice are allowed to freely play for further 5 minutes with two building blocks different in shape (this is referred to as retention trial). In the training trial and retention trial, the number of times a mouse is in contact with each of the two objects was counted. The ratio (%) of the number of contact times to the different-shaped building block to the total number of contact times in the retention trial was calculated and used as a discrimination index."}}}
{"smiles": "O=C(N[C@@H](c1ccccc1)[C@H]1[C@H]2C[C@@H]3C[C@](Cl)(C2)C[C@@]1(OC(=O)C(F)(F)F)C3)C(F)(F)F", "note": "[TP-014, (1S,2R,3S,5S,7S)-5-chloro-2-((R)-phenyl(2,2,2-trifluoroacetamido)methyl)adamantan-1-yl 2,2,2-trifluoroacetate]", "values": [{"measurement": "phosphorylation of CaMKII in hippocampus", "setting": "APP23 mice [1]", "value": "accelerated"}, {"measurement": "anxiety-like symptoms", "setting": "[2]", "value": "no improvement effect"}, {"measurement": "attentional function (alternation, Y-maze)", "setting": "APP23 mice [3]", "value": "significant attentional function improvement effect"}, {"measurement": "cognitive function, new object recognition test (discrimination index)", "setting": "APP23 mice [4]", "value": "effectively improved"}]}
